Drawing on publication PMC6663863, “The inositol hexakisphosphate kinases IP6K1 and -2 regulate human cellular phosphate homeostasis, including XPR1-mediated phosphate export” (The Journal of Biological Chemistry, 2019), this text covers IC50 for 4 compounds.

This assay has as its target T1, SPX^XPR1 (recombinant His-tagged SPX domain of human XPR1) (Homo sapiens, UniProt Q9UBH6).
T1 construct: SPX domain only, N-terminal cytosolic part; residue borders not given, cloning primers encode start MKFAEHL and end PPLGAAQ-stop; His tag (modified pHisTrcA), HisTrap purified
T1 sequence (Q9UBH6 1-227): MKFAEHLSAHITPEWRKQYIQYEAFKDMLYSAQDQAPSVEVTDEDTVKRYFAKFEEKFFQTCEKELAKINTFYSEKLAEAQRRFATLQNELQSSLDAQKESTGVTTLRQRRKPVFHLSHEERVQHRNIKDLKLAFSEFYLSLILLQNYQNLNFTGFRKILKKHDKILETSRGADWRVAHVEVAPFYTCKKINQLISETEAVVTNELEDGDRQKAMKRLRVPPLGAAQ
In words: competition with [3H]IP6, PEG precipitation. It is filed as binding.
Consider `O=P(O)(O)O[C@@H]1[C@@H](OP(=O)(O)O)[C@@H](OP(=O)(O)O)[C@@H](OP(=O)(O)OP(=O)(O)O)[C@H](OP(=O)(O)O)[C@H]1OP(=O)(O)O` [1-IP7], for which the IC50 is around 8.4 µM.

For the compound `O=P(O)(O)O[C@@H]1[C@@H](OP(=O)(O)O)[C@H](OP(=O)(O)O)[C@H](O)[C@H](OP(=O)(O)O)[C@H]1OP(=O)(O)O` [I(1,3,4,5,6)P5], the IC50 was 28.1 ± 3.9 µM.

As to `O=P(O)(O)O[C@H]1[C@@H](OP(=O)(O)O)[C@H](OP(=O)(O)O)[C@@H](OP(=O)(O)OP(=O)(O)O)[C@H](OP(=O)(O)O)[C@H]1OP(=O)(O)O` [5-IP7, 5-diphosphoinositol pentakisphosphate], the IC50 was around 4.2 µM.

As to `O=P(O)(O)O[C@H]1[C@H](OP(=O)(O)O)[C@@H](OP(=O)(O)O)[C@H](OP(=O)(O)O)[C@@H](OP(=O)(O)O)[C@H]1OP(=O)(O)O` [IP6, inositol hexakisphosphate], the 50% inhibitory concentration (IC50) was around 9.8 µM.
